By MIC is commonly meant the lowest concentration that inhibits growth of the organism. Low readings indicate greater potency, high ones weaker potency.

The subject of data set [1] is tammar wallaby erythrocytes. Type of data set: cell-based. Here is the method: The toxicity of the antimicrobial peptides was determined using a haemolytic assay. In particular, the hemolytic activity of the peptides was determined using tammar wallaby erythrocytes. Fresh erythrocytes were harvested from heparinized blood taken from a tammar wallaby. Erythrocytes were harvested by centrifugation for 3 min at 3000 g. Erythrocytes were then washed three times with PBS (pH 7.4) until the supernatant was essentially colourless. 20 μl two fold serial dilutions of the peptide were mixed with the same volume of erythrocytes in solution 2%) in PBS of each well of a 96-plate. 80 μl PBS was added to each well after the plate was incubated at 37° C. for one hour. Plates were then centrifuged at 3000 g for 5 min. 90 μl of the resulting supernatant was transferred to a flat-bottom microtiter plate and haemoglobin release was monitored by measuring the absorbance at 414 nm with an ELISA plate reader. […] Each sample was performed in triplicate. Percentage hemolysis was calculated by the following formula: [(OD414 peptide−OD414 buffer)/OD414 complete hemolysis−OD414 buffer)]×100%.

Data set [2] concerns Streptococcus agalactiae (ATCC 12927). Type of data set: cell-based.
In data set [3] the test system is S. aureus (ATCC 43300). Type of data set: cell-based, Staphylococcus aureus. The following applies: ATCC 43300, 17 h. Here is the method: (§1) The MIC values of SEQ ID NO: 2 and SEQ ID NO: 19 were also determined against a range of multidrug-resistant isolates, including clinical and laboratory strains. Peptides, maintained at −20° C. in solid form for storage purposes, were subsequently dissolved in 0.01% (v/v) acetic acid (Sigma-Aldrich) to a stock concentration of […]. The stock solutions were made fresh for each experiment. Eighteen (18) bacterial isolates obtained from the Facility for Anti-Infective Drug Development and Innovation, Victoria, Australia (FADDI) as listed in Table 2 were maintained as stock cultures in Tryptic Soya Broth plus 20% (v/v) glycerol at a temperature of −80° C., and subcultured onto Nutrient Agar for each experiment. MIC values were determined in cation-adjusted Mueller-Hinton broth (CAMHB) and Mueller-Hinton broth (MHB) using standard broth micro-dilution methods.

The subject of data set [4] is S. aureus strain FADDI 011. Format: cell-based, Staphylococcus aureus. The following applies: strain FADDI 011, 17 h. As for the experimental part:
as §1

Data set [5] concerns S. aureus 700699. Type of data set: cell-based, Staphylococcus aureus. The conditions noted are these: 700699, 17 h. Here is the method: as §1
Data set [6] deals with Candida albicans (ATCC 753). Format: cell-based.
The subject of data set [7] is A. baumannii strain FADDI 006. Format: cell-based, Acinetobacter baumannii. The following applies: strain FADDI 006, 17 h. As for the experimental part:
as §1

Data set [8] relates to A. baumannii strain FADDI 007. Type of data set: cell-based, Acinetobacter baumannii. The following applies: strain FADDI 007, 17 h. As for the experimental part: as §1
Data set [9] has as its system Staphylococcus aureus (ATCC 700698). Type of data set: cell-based. The conditions noted are these: ATCC 700698, 17 h. As for the experimental part:
as §1

The test system of data set [10] is Enterococcus faecium (ATCC 700221). Format: cell-based. The following applies: ATCC 700221, 17 h. As for the experimental part:
as §1

Data set [11] concerns Escherichia coli DH5 α. Type of data set: cell-based. Here is the method:
as §1

For data set [12], the system named is A. baumannii strain FADDI 005 (ATCC 19606 derivative). Format: cell-based, Acinetobacter baumannii. The conditions noted are these: 17 hr at 35° C. Here is the method:
as §1
Pseudomonas aeruginosa (ATCC 27853) and S. aureus (ATCC 43300) were included as quality controls in experiments. P. aeruginosa strains FADDI 001 and FADDI 002 are mucoid; and P. aeruginosa strains FADDI 003 and FADDI 004 are non-mucoid. P. aeruginosa strain FADDI 003 also has a small colony morphology. The A. baumannii strain FADDI 005 is a colistin-resistant isolate obtained from Mueller-Hinton agar containing 10 mg/L colistin.

Data set [13] has as its system E. coli DH5α. The conditions noted are these: for antimicrobial activity, cleared area in radial diffusion assay (FIG. 4): 5 μl of 250 μg/ml solutions.
Method: Briefly, approximately 4×10^6 of mid-logarithmic-phase organisms were grown on plates in 11 ml of warm 0.8% agarose containing 0.03% (w/v) Tryticase soy broth (TSB) powder, with or without 100 mM NaCl, buffered with 10 mM sodium phosphate, pH 7.4. The test peptide was serially diluted in acidified water (0.01% acetic acid), and 5 μl of diluted peptide sample was loaded in a 2.5 diameter well in the agarose. A 10 ml overlay gel composed of 6% TSB, 0.8% agarose and 10 mM sodium phosphate buffer (pH 7.4) was poured into each well. Plates were then incubated overnight to allow the surviving organisms to form microcolonies. The clear zone were measured to the nearest 0.1 mm using a magnified transilluminator and expressed in units (1 mm=10 U) after subtracting the well diameter. The minimum inhibitory concentration (MIC) is defined by the χ intercept of a regression line through zone diameters obtained from a series of serially diluted peptide samples.
Data set [14] concerns K. pneumoniae strain FADDI 009. Type of data set: cell-based, Klebsiella pneumoniae. The conditions noted are these: strain FADDI 009, 17 h. As for the experimental part: as §1
Data set [15] concerns K. pneumoniae strain FADDI 010. Format: cell-based, Klebsiella pneumoniae. The conditions noted are these: strain FADDI 010, 17 h. Here is the method: as §1
Data set [16] has as its system Staphylococcus aureus (ATCC 25923). Type of data set: cell-based.
Data set [17] deals with P. aeruginosa strain FADDI 002. Type of data set: cell-based, Pseudomonas aeruginosa. The conditions noted are these: strain FADDI 002, 17 h. As for the experimental part:
as §1

Data set [18] deals with Streptococcus equi equi (ATCC 9527). Type of data set: cell-based. The following applies: ATCC 9527.
For data set [19], the system named is Streptococcus pyogenes (ATCC 19615). Format: cell-based.
In data set [20] the test system is Bacillus subtilis. Format: cell-based.
Data set [21] relates to P. aeruginosa (ATCC 28753). Format: cell-based, Pseudomonas aeruginosa.
Data set [22] concerns Salmonella choleraesuis (ATCC 14028). Format: cell-based.
In data set [23] the test system is Pseudomonas aeruginosa (ATCC 27853). Format: cell-based. As for the experimental part:
as §1

For data set [24], the system named is Klebsiella pneumoniae (ATCC 13883). Type of data set: cell-based. Here is the method: as §1
For data set [25], the system named is Acinetobacter baumannii (ATCC 19606). Format: cell-based. Here is the method:
as §1

[26] abbreviates: MHB (less than 5 mg/L Mg2+ and 24 mg/L Ca2+), 17 hr at 35° C.

≈ marks a conversion by molar mass, not a printed value. Like-named read-outs stand apart in the source and are kept apart here. Where a SMILES comes first, the peptide text is derived from it. Where no end group is shown, it is not given here. [ ]: non-standard residue; d: D form.

As for “KRGFGKKLRKRLKKFRNSIKKRLKNFNVVIPIPLP-NH2 [SEQ ID NO: 2]”, in data set [1], the “haemolysis at the MIC determined in Example 1” value was “less than 5%”. Also, the “haemolysis at the majority of concentrations tested (FIGS. 2a and 2b)” value in [1] is “did not cause substantial levels of haemolysis”. The “antimicrobial activity in words” value is reported as “moderate antimicrobial activity” in data set [2] (Table 1), “Weaker antimicrobial activity” in data set [6] (Table 1) and “weaker antimicrobial activity” in [16] (Table 1). The MIC is >64 µg/mL in [3]; >64 µg/mL in data set [4]; >64 µg/mL in data set [5]; >64 µg/mL in [7]; 8 µg/mL in data set [8]; >64 µg/mL in data set [9]. Moreover, the MIC was 16 µg/mL in data set [10]; 2 µg/mL in data set [11] (DH5 α); 8 µg/mL in data set [12] (CAMHB (10.0 mg/L Mg2+ and 24 mg/L Ca2+)); 4 µg/mL in data set [12] (MHB (less than 5 mg/L Mg2+ and 24 mg/L Ca2+)); 4 µg/mL in data set [14]; 32 µg/mL in data set [15]. In addition, the MIC in [17] worked out at 4 µg/mL. Also, the “radial clear zone compared to LL-37 (FIG. 3)” value in data set [13] (5 μl of 250 μg/ml solutions of each peptide, E. coli) is “larger radial clear zone”.
As to “PLPIPIVVNFNKLRKKISNRFKKLRKRLKKGFGRK [SEQ ID NO: 13]”, in [13] (E. coli), the “antimicrobial activity, cleared area in radial diffusion assay (FIG. 4)” value (“antimicrobial activity, cleared area” for short) is given as “exhibits antimicrobial activity”.
With “RKKGSKRHKPGSYSVIALGKPGVKKSPYMEAL-NH2 [SEQ ID NO: 31]”, the MIC in [2] (ATCC 12927) was 5.44 ± 0.11 µg/mL; in data set [6] (ATCC 753), >250 µg/mL; in data set [18] it was 8.66 ± 0.45 µg/mL; in data set [19] (ATCC 19615), 3.43 ± 0.34 µg/mL; in [20], 14.03 ± 0.25 µg/mL; in [21] it was 57.8 µg/mL. Moreover, the MIC is >250 µg/mL in [22], 1.16 ± 0.67 µg/mL in [13] (DH5 α) and 8.5 ± 0.23 µg/mL in data set [16] (ATCC 25923). Moreover, the “antimicrobial activity in words” value in data set [19] (Table 1) is on record as “moderate protection”; in [13] (Table 1) it was “strong protection”.
For “D-Pro Leu Pro Ile Pro Ile Val Val Asn Phe Asn Lys Leu Arg Lys Lys Ile Ser Asn Arg Phe Lys Lys Leu Arg Lys Arg Leu Lys Lys Gly Phe Gly Arg D-Lys ([dP]LPIPIVVNFNKLRKKISNRFKKLRKRLKKGFGR[dK]) [SEQ ID NO: 17]”, in data set [13] (E. coli), the “antimicrobial activity, cleared area” value is “exhibits antimicrobial activity”.
For “D-Lys Arg Gly Phe Gly Lys Lys Leu Arg Lys Arg Leu Lys Lys Phe Arg Asn Ser Ile Lys Lys Arg Leu Lys Asn Phe Asn Val Val Ile Pro Ile Pro Leu D-Pro ([dK]RGFGKKLRKRLKKFRNSIKKRLKNFNVVIPIPL[dP]) [SEQ ID NO: 11]”, the “antimicrobial activity, cleared area” value in data set [13] (E. coli) is reported as “exhibits antimicrobial activity”.
In the case of `CC[C@H](C)[C@H](NC(=O)[C@H](CCCCN)NC(=O)[C@H](CCC(=O)O)NC(=O)[C@H](CCCCN)NC(=O)[C@H](CO)NC(=O)[C@H](CCCCN)NC(=O)[C@H](CCCNC(=N)N)NC(=O)[C@H](Cc1ccccc1)NC(=O)[C@H](Cc1ccccc1)NC(=O)[C@H](CC(=O)O)NC(=O)CNC(=O)[C@H](CC(C)C)NC(=O)[C@@H](N)CC(C)C)C(=O)NCC(=O)N[C@@H](CCCCN)C(=O)N[C@@H](CCC(=O)O)C(=O)N[C@@H](Cc1ccccc1)C(=O)N[C@@H](CCCCN)C(=O)N[C@@H](CCCNC(=N)N)C(=O)N[C@H](C(=O)N[C@H](C(=O)N[C@@H](CCC(N)=O)C(=O)N[C@@H](CCCNC(=N)N)C(=O)N[C@H](C(=O)N[C@@H](CCCCN)C(=O)N[C@@H](CC(=O)O)C(=O)N[C@@H](Cc1ccccc1)C(=O)N[C@@H](CC(C)C)C(=O)N[C@@H](CCCNC(=N)N)C(=O)N[C@@H](CC(N)=O)C(=O)N[C@@H](CC(C)C)C(=O)N[C@H](C(=O)N1CCC[C@H]1C(=O)N[C@@H](CCCNC(=N)N)C(=O)N[C@H](C(=O)N[C@@H](CCC(=O)O)C(=O)N[C@@H](CO)C(=O)O)[C@@H](C)O)C(C)C)[C@@H](C)CC)C(C)C)[C@@H](C)CC` [LL-37, reference compound], the MIC is >32 µg/mL in data set [23] (setting [26]), 32 µg/mL (≈ 7.12 µM) in [24] (setting [26]), 32 µg/mL (≈ 7.12 µM) in data set [11] (microbroth dilution in MHB) and 32 µg/mL (≈ 7.12 µM) in data set [25] (setting [26]).
For the molecule `CC[C@@H](C)[C@@H](NC(=O)[C@@H](CO)NC(=O)[C@@H](CC(N)=O)NC(=O)[C@@H](CCCNC(=N)N)NC(=O)[C@@H](Cc1ccccc1)NC(=O)[C@@H](CCCCN)NC(=O)[C@@H](CCCCN)NC(=O)[C@@H](CC(C)C)NC(=O)[C@@H](CCCNC(=N)N)NC(=O)[C@@H](CCCCN)NC(=O)[C@@H](CCCNC(=N)N)NC(=O)[C@@H](CC(C)C)NC(=O)[C@@H](CCCCN)NC(=O)[C@@H](CCCCN)NC(=O)CNC(=O)[C@@H](Cc1ccccc1)NC(=O)CNC(=O)[C@@H](CCCNC(=N)N)NC(=O)[C@H](N)CCCCN)C(=O)N[C@H](CCCCN)C(=O)N[C@H](CCCCN)C(=O)N[C@H](CCCNC(=N)N)C(=O)N[C@H](CC(C)C)C(=O)N[C@H](CCCCN)C(=O)N[C@H](CC(N)=O)C(=O)N[C@H](Cc1ccccc1)C(=O)N[C@H](CC(N)=O)C(=O)N[C@@H](C(=O)N[C@@H](C(=O)N[C@@H](C(=O)N1CCC[C@@H]1C(=O)N[C@@H](C(=O)N1CCC[C@@H]1C(=O)N[C@H](CC(C)C)C(=O)N1CCC[C@@H]1C(N)=O)[C@H](C)CC)[C@H](C)CC)C(C)C)C(C)C` [SEQ ID NO: 9, D-Lys D-Arg D-Gly D-Phe D-Gly D-Lys D-Lys D-Leu D-Arg D-Lys D-Arg D-Leu D-Lys D-Lys D-Phe D-Arg D-Asn D-Ser D-Ile D-Lys D-Lys D-Arg D-Leu D-Lys D-Asn D-Phe D-Asn D-Val D-Val D-Ile D-Pro D-Ile D-Pro D-Leu D-Pro] (H-[dK][dR]G[dF]G[dK][dK][dL][dR][dK][dR][dL][dK][dK][dF][dR][dN][dS][dI][dK][dK][dR][dL][dK][dN][dF][dN][dV][dV][dI][dP][dI][dP][dL][dP]-NH2; N-terminus and C-terminus assumed), the MIC was >32 µg/mL in data set [3]; 4 µg/mL (≈ 0.948 µM) in data set [23] (ATCC 27853, 17 h); 4 µg/mL (≈ 0.948 µM) in [24] (ATCC 13883, 17 h); 4 µg/mL (≈ 0.948 µM) in [11] (DH5 α); 8 µg/mL (≈ 1.9 µM) in data set [25] (ATCC 19606, 17 h).

Values taken from patent publication US8383125B2, “Antimicrobial protein” (Agriculture Victoria Services Pty, Limited, priority 2006, dated 2013).
